From US20150190369A1, “QUERCETIN-3-GLUCOSIDE AND USES THEREOF” (priority 2012, published 2015)

How the values were obtained:
[1] = tested on: LDLR mRNA; assay: qRT-PCR for LDLR mRNA in MIN6 β-cells; assay type: cell-based, mouse; parameters: increase in LDLR mRNA: dose or concentration left out as unconfirmed; conditions: MIN6, 24 h
Protocol: (§1) Mouse insulinoma MIN6 cells were cultured in a 5% CO2-95% air atmosphere at 37° C. in DMEM medium containing 10% heat-inactivated fetal bovine serum, 1 mM Na-pyruvate, 2 mM L-glutamine, 25 mM D-glucose, and 28 μM β-mercaptoethanol. Q3G at a specific final concentration was supplemented to the culture medium and incubation was conducted for a selected length of time. Media were collected, spun at 600 g to sediment suspended cells, supplemented with 0.5 volumes of 3×RIPA-PIC (1×: 50 mM Tris-HCl, pH 8, 150 mM NaCl, 1% NP-40, 0.5% Na-deoxycholate and 0.1% SDS and PIC). Cells were lysed in 1×RIPA-PIC for immuno-blotting, or in RNA extraction buffer for qRT-PCR.
For the mouse studies, the levels of specific mRNAs were quantified in a PCR-based fluorogenic assay using the Taqman technology (Holland et al., 1991). Briefly, total RNA was extracted using the RNeasy extraction kit and reverse-transcribed into cDNA using random hexameric primers and the Superscript II RNase H-Reverse Transcriptase. The cDNA was used as a template to produce PCR amplicons using FastStart TaqMan ProbeMaster-Rox master mix, primer pairs and the appropriate fluorescent probes) in the Stratagene Mx3005P thermocycler. Standard curves were established using varying amounts of pre-quantified amplicons of each transcript. The level of mRNA for the TATA-box binding protein (TBP) was used for normalization.
(§2) MIN6 β-cells were incubated for 24 h in the presence of different concentrations of Q3G. Total RNA was extracted and analyzed by qRT-PCR for the levels of mRNA for PCSK9, LDLR, ABCA1 and ABCG1.

[2] = tested on: LDLR; assay: Immunofluorescence flow cytometry of cell surface LDLR on Huh7 cells; assay type: cell-based, human; conditions: Huh7 pretreated 24 h with 5 μM Q3G versus untreated
Protocol: Cells were seeded at 4×10^4 cell/10-cm dish in 3 ml of completed medium and incubated overnight. LPDS medium containing or not 5 μM Q3G was substituted and incubation resumed for 24 h. Subsequent steps were conducted with ice-cold solutions and at 4° C. Cell monolayers were rinsed with PBS, overlaid with PBS containing rabbit anti-LDLR antibody for 1 h, then with PBS containing Alexa Fluor-488-conjugated goat anti-rabbit Ig antibody for another 1 h. After a PBS rinse, the cells were overlaid with Versene, suspended in DMEM and analyzed in Benson-Dickenson XL flow cytometer at 492 nm and 520 nm excitation and emission wavelengths, respectively. Cell autofluorescence and non-specific fluorescence were assessed using cells not treated with the secondary and the primary antibody, respectively.
To be functionally relevant, Q3G-induced LDLR should accumulate at the cell surface of the hepatocyte cells where it could mediate LDL uptake. To verify the surface localization of the receptor, untreated and pretreated intact Huh7 cells were stained at 4° C. for LDLR by indirect immunofluorescence, and analyzed by fluorescence flow cytometry.

[3] = tested on: ABCG1 mRNA; assay: qRT-PCR for ABCG1 mRNA in MIN6 β-cells; assay type: cell-based, mouse; conditions: MIN6, 24 h
Protocol: as §1
(§3) For the mouse studies, the levels of specific mRNAs were quantified in a PCR-based fluorogenic assay using the Taqman technology (Holland et al., 1991). Briefly, total RNA was extracted using the RNeasy extraction kit and reverse-transcribed into cDNA using random hexameric primers and the Superscript II RNase H-Reverse Transcriptase. […] Standard curves were established using varying amounts of pre-quantified amplicons of each transcript. […]
as §2

[4] = tested on: PCSK9; assay: Semi-quantitative immunoblotting for cellular PCSK9 in Huh7 cells; assay type: cell-based, human
Protocol: At passage, Huh7 cells were routinely seeded at sub-confluence (˜10^6 cells/10-cm dish) in Dulbecco's modified Eagle's medium (DMEM) containing 10% fetal bovine serum (FBS) or LPDS (for experiments) and 50 μg/ml gentamycin. They were incubated overnight at 37° C., in a humidified 5% CO2-95% air atmosphere. Cells were treated or not with Q3G at defined concentrations and for defined lengths of time. Media were collected and centrifuged at 200 g for 5 min to sediment suspended cells; supernatants were collected and supplemented with 0.33 volumes of a 3×-concentrated PIC. Cell monolayers were rinsed with ice-cold phosphate-buffered saline (PBS); they were overlaid with […] the RIPA lysis buffer (50 mM Tris-HCl, pH 8, 150 mM NaCl, 1% NP-40, 0.5% Na-deoxycholate and 0.1% SDS) supplemented with 1× PIC. After 20 min in an ice bath, the lysates were centrifuged at 14,000 g and 4° C. for 20 min, and supernatants were collected. Conditioned media and lysates were stored at −20° C. until analysis.
Cell lysates were fractionated by SDS-PAGE and electrophoretically transferred onto a polyvinylidene fluoride membrane. The membrane was incubated with a goat antihuman LDLR, rabbit anti-PCSK9, or rabbit anti-SREBP-2 polyclonal antibody at 1:1000, 1:1500, and 1:200 dilutions, respectively, and then with a HRP-conjugated heterospecific secondary antibody against the primary Igs at a 1:2000 dilution. It was probed for HRP reaction using the Western Lightning Chemiluminescence Reagent Plus a chemiluminescence-based revelation kit. The signal was captured on X-ray film and immunoreactive bands analyzed by densitometry on a Syngene's ChemiGenius^2XE Bio Imaging System (Cambridge, Mass.) within the dynamic range of the instrument. The membrane was stripped and reprobed with the anti-β-actin monoclonal primary antibody at 1:20,000 dilution and HRP-conjugated rabbit anti-mouse IgG secondary antibody at a 1:5000 dilution. The densitometric values of β-actin bands were using for normalization of experimental samples. […]

[5] = dogs, meal supplement; cited from earlier work
[6] = tested on: ABCA1 mRNA; assay: qRT-PCR for ABCA1 mRNA in MIN6 β-cells; assay type: cell-based, mouse; conditions: MIN6, 24 h
Protocol: as §1, §3, §2

SMILES: O=c1c(O[C@@H]2O[C@H](CO)[C@@H](O)[C@H](O)[C@H]2O)c(-c2ccc(O)c(O)c2)oc2cc(O)cc(O)c12 [Q3G, quercetin-3-O-β-D-glucoside]
- effect on LDL-receptor mRNA levels ([1]; Q3G 8 mM and above): increased
- effect on LDLR mRNA levels ([1]; Q3G up to 4 mM): does not affect
- increase in LDLR mRNA ([1]; maximum Q3G concentration used): 1.8 fold
- increase of LDLR cell surface density [2]: 1.7 fold
- effect on ABCG1 mRNA levels ([3]; Q3G 8 mM and above): reducing
- increase of ABCG1 mRNA levels ([3]; Q3G up to 4 mM): about 50%
- lag before PCSK9 accumulation in the cells ([4]; Huh7, 2 μM Q3G, time course): 3 h
- amount of cellular PCSK9 ([4]; Huh7, 24 h, co-treatment 5 μM Q3G with simvastatin 0.2 and 1 μM): further increased
- increase of PCSK9 protein in the cells ([4]; Huh7, 24 h, highest Q3G concentration tested (0 to 10 μM)): 1.9 ×
- quercetin bioavailability versus quercetin aglycone and rutin [5]: significantly greater
- effect on ABCA1 mRNA levels ([6]; Q3G 8 mM and above): reducing
- increase of ABCA1 mRNA levels ([6]; Q3G up to 4 mM): about 50%
